Entries after “also recorded” stand apart in the source; their conditions may differ. Like-named read-outs stand apart in the source and are kept apart here.
Tests used:
[1] = system: HBV DNA replication in DE19 cells; assay: Inhibition of intracellular HBV DNA replication in HepDE19 cells (PCR); format: cell-based; conditions: Hepatitis B virus
Protocol: (§1) The antiviral activity of Compound I and Compound II towards HBV was tested in various cell lines (HepAD38, HepDE19 and HepDES19). The HepAD38 cell line is derived from the HepG2 cell line and engineered to stably maintain HBV (see Ladner et al., Antimicrobial Agents and Chemotherapy, 1997, 41, 1715-1720, which is incorporated herein by reference in its entirety). DE19 and DES19 cell lines are human hepatoma derived cell lines (see Guo et al. J. Virol 2007, 81, 12472-84, which is incorporated herein by reference in its entirety). Active HBV replication in the cells was suppressed by inclusion of tetracycline in the cell culture medium, which binds to a tetracycline-sensitive promoter, and induced by removal of tetracycline. HBV replication was quantified by measuring the amount of HBV DNA in the cells.
(§2) Compound I and Compound II were applied to induced cells (i.e., cells without tetracycline), either alone or in combination at various concentrations. Next, intracellular DNA was isolated and HBV DNA was measured by polymerase chain reaction (PCR). The percent inhibition of HBV DNA was examined over the concentration ranges of 0-320 nM for Compound I and 0-640 nM for Compound II. Concentration versus effect curves were constructed for both drugs (FIGS. 1A and 1B, 2A and 2B, and 3A and 3B). […] See FIGS. 1B, 2B, and 3B (curves where [Compound II]=0).
(§3) The level of reduction in intracellular HBV DNA by the various combinations of Compound I and II as plotted in FIGS. 1 A and 1B, 2A and 2B, and 3A and 3B, was analyzed using the Shipman-Prichard synergy scoring program (MacSynergy™ II program, Prichard et al. Antiviral Research 1990), wherein the experimentally observed effect of each combination is compared to the theoretical, additive inhibition. The comparison is used to determine combination scores (effect volumes) that represent either synergistic (positive scores) or antagonistic (negative scores) effects. All the positive and negative scores are summed to calculate overall synergy and antagonism scores that reflect the entire concentration spectrum of the two drugs. The magnitude of the scores reflect the degree of synergism/antagonism and the likelihood of the synergistic/antagonistic activities being important in vivo, according to the following four categories: (1) Synergy/Antagonism Volume=0-25 (log volume <2): insignificant synergy/antagonism (i.e., only additive effects); (2) Synergy/Antagonism Volume=25-50 (log volume 2-5): minor but significant amount of synergy/antagonism; (3) Synergy/Antagonism Volume=50-100 (log volume 5-9): moderate synergy/antagonism that may be important in vivo; (4) Synergy/Antagonism Volume >100 (log volume >9): stronger synergy/antagonism that is probably important in vivo. IC50 values for Compound I in combination with different concentrations of Compound II, and Compound II in combination with different concentrations of Compound I, are presented in Tables 6 and 7, respectively.

[2] = system: HBV DNA replication in DES19 cells; assay: Inhibition of intracellular HBV DNA replication in HepDES19 cells (PCR); format: cell-based; conditions: Hepatitis B virus
Protocol: as §1, §2, §3

[3] = system: HBV DNA replication in HepAD38 cells; assay: Inhibition of intracellular HBV DNA replication in HepAD38 cells (PCR); format: cell-based; conditions: Hepatitis B virus
Protocol: as §1, §2, §3

[4] = system: HBV DNA replication in AD38, DES19 and DE19 cells; assay: In vitro combination study, statements covering AD38, DES19 and DE19 cells together; format: cell-based, hepatitis B virus; conditions: Compound I 5-320 nM and/or Compound II 10-640 nM; FIGS. 1-3
Protocol: The antiviral activity of Compound I and Compound II towards HBV was tested in various cell lines (HepAD38, HepDE19 and HepDES19). […] Active HBV replication in the cells was suppressed by inclusion of tetracycline in the cell culture medium, which binds to a tetracycline-sensitive promoter, and induced by removal of tetracycline. HBV replication was quantified by measuring the amount of HBV DNA in the cells.
The comparison is used to determine combination scores (effect volumes) that represent either synergistic (positive scores) or antagonistic (negative scores) effects. All the positive and negative scores are summed to calculate overall synergy and antagonism scores that reflect the entire concentration spectrum of the two drugs. […]

HBV = assay: Anti-HBV effects in the HBV transgenic mouse model; format: in vivo, HBV transgenic mice; conditions: for serum HBsAg / liver HBsAg / serum HBV DNA / serum HBeAg: oral, 16 days; for serum HBsAg: FIG. 7; for liver HBsAg / serum HBV DNA / serum HBeAg: alone or in combination; for liver HBsAg: FIG. 8; for serum HBV DNA: FIG. 9; for serum HBeAg: FIG. 10; for liver HBV DNA (copies per mg liver): once-daily oral gavage 16 days, Compound I 10 or 50, Compound II 5 or 10 mg/kg/day, combination 10+5, FIG. 6
Protocol: (§4) Compound I and Compound II were administered by once-daily oral gavage for 16 days to HBV transgenic mice which replicated HBV from a 1.3× overlength HBV genome integrated into the mouse genome. Expression occurred mostly in hepatocytes.
Treatment Groups (n=8/Group):
After 16 days of dosing, livers and serum were harvested and the following parameters were measured: a) HBV DNA by quantitative PCR (liver and serum) b) HBsAg by ELISA (liver and serum) c) HBeAg by ELISA (serum)

[5] = Compound I concentration in serum by liquid chromatography-mass spectrometry; format: in vivo, HBV transgenic mice; conditions: 3-hr post-dose on Day 16 of dosing; FIG. 11
Protocol: as §4
Compound I Concentrations were Measured by Liquid Chromatography-Mass Spectrometry (Serum)

## CCCCCCCCCCCCCCCCOCCCOP(=O)(O)CO[C@H](C)Cn1cnc2c(N)ncnc21 [Compound II, 3-(hexadecyloxy)propyl hydrogen ((R)-1-(6-amino-9H-purin 9-yl)propan-2-yloxy)methylphosphonate]
[1]; HepDE19, read-out: IC50 for Compound II, DE19 cells, Compound I 0 nM
  IC50: 253 nM
[1]; HepDE19, read-out: IC50 for Compound II, DE19 cells, Compound I 5 nM
  IC50: 270 nM
[1]; HepDE19, read-out: IC50 for Compound II, DE19 cells, Compound I 10 nM
  IC50: 255 nM
[1]; HepDE19, read-out: IC50 for Compound II, DE19 cells, Compound I 20 nM
  IC50: 213 nM
[1]; HepDE19, read-out: IC50 for Compound II, DE19 cells, Compound I 40 nM
  IC50: 237 nM
[1]; HepDE19, read-out: IC50 for Compound II, DE19 cells, Compound I 80 nM
  IC50: 226 nM
[1]; HepDE19, read-out: IC50 for Compound II, DE19 cells, Compound I 160 nM
  IC50: 83.9 nM
[1]; HepDE19, read-out: IC50 for Compound II, DE19 cells, Compound I 320 nM
  IC50: 110 nM
[2]; HepDES19, read-out: IC50 for Compound II, DES19 cells, Compound I 0 nM
  IC50: 252 nM
[2]; HepDES19, read-out: IC50 for Compound II, DES19 cells, Compound I 5 nM
  IC50: 237 nM
[2]; HepDES19, read-out: IC50 for Compound II, DES19 cells, Compound I 10 nM
  IC50: 228 nM
[2]; HepDES19, read-out: IC50 for Compound II, DES19 cells, Compound I 20 nM
  IC50: 180 nM
[2]; HepDES19, read-out: IC50 for Compound II, DES19 cells, Compound I 40 nM
  IC50: 190 nM
[2]; HepDES19, read-out: IC50 for Compound II, DES19 cells, Compound I 80 nM
  IC50: 188 nM
[2]; HepDES19, read-out: IC50 for Compound II, DES19 cells, Compound I 160 nM
  IC50: 86.6 nM
[2]; HepDES19, read-out: IC50 for Compound II, DES19 cells, Compound I 320 nM
  IC50: 63.2 nM
[3]; HePAD38, read-out: IC50 for Compound II, AD38 cells, Compound I 0 nM
  IC50: 248 nM
[3]; HePAD38, read-out: IC50 for Compound II, AD38 cells, Compound I 5 nM
  IC50: 259 nM
[3]; HePAD38, read-out: IC50 for Compound II, AD38 cells, Compound I 10 nM
  IC50: 255 nM
[3]; HePAD38, read-out: IC50 for Compound II, AD38 cells, Compound I 20 nM
  IC50: 232 nM
[3]; HePAD38, read-out: IC50 for Compound II, AD38 cells, Compound I 40 nM
  IC50: 232 nM
[3]; HePAD38, read-out: IC50 for Compound II, AD38 cells, Compound I 80 nM
  IC50: 229 nM
[3]; HePAD38, read-out: IC50 for Compound II, AD38 cells, Compound I 160 nM
  IC50: 104 nM
[3]; HePAD38, read-out: IC50 for Compound II, AD38 cells, Compound I 320 nM
  IC50: 99.7 nM
[4]
  intracellular HBV DNA compared to induced cells in the absence of the drug: reduced intracellular HBV DNA in a concentration-dependent manner
HBV; Compound II alone (5 or 10 mg/kg/day) or with low-dose Compound I (10 mg/kg/day)
  serum HBsAg: did not affect serum HBsAg
HBV
  liver HBsAg: did not affect
  serum HBV DNA: did not affect
  serum HBeAg: did not affect
  liver HBV DNA (copies per mg liver): decreased liver HBV DNA; also recorded: highly efficacious

## CC[C@@H]1NC(=O)C([C@H](O)[C@H](C)CCCCCCNC(C)=O)N(C)C(=O)[C@@H](C(C)C)N(C)C(=O)[C@H](CC(C)C)N(C)C(=O)[C@H](CC(C)C)N(C)C(=O)[C@H](C)NC(=O)[C@H](C)NC(=O)[C@@H](CC(C)C)N(C)C(=O)[C@H](C(C)C)NC(=O)[C@H](CC(C)C)N(C)C(=O)[C@H](C)N(C)C1=O (stereo partly shown) [Compound I]
[1]; HepDE19, read-out: IC50 for Compound I, DE19 cells, Compound II 0 nM
  IC50: 32.9 nM
[1]; HepDE19, read-out: IC50 for Compound I, DE19 cells, Compound II 10 nM
  IC50: 29.5 nM
[1]; HepDE19, read-out: IC50 for Compound I, DE19 cells, Compound II 20 nM
  IC50: 26 nM
[1]; HepDE19, read-out: IC50 for Compound I, DE19 cells, Compound II 40 nM
  IC50: 27.3 nM
[1]; HepDE19, read-out: IC50 for Compound I, DE19 cells, Compound II 80 nM
  IC50: 27.8 nM
[1]; HepDE19, read-out: IC50 for Compound I, DE19 cells, Compound II 160 nM
  IC50: 33.6 nM
[1]; HepDE19, read-out: IC50 for Compound I, DE19 cells, Compound II 320 nM
  IC50: 37.5 nM
[1]; HepDE19, read-out: IC50 for Compound I, DE19 cells, Compound II 640 nM
  IC50: 23.3 nM
[2]; HepDES19, read-out: IC50 for Compound I, DES19 cells, Compound II 0 nM
  IC50: 33.4 nM
[2]; HepDES19, read-out: IC50 for Compound I, DES19 cells, Compound II 10 nM
  IC50: 29.1 nM
[2]; HepDES19, read-out: IC50 for Compound I, DES19 cells, Compound II 20 nM
  IC50: 27.2 nM
[2]; HepDES19, read-out: IC50 for Compound I, DES19 cells, Compound II 40 nM
  IC50: 26.4 nM
[2]; HepDES19, read-out: IC50 for Compound I, DES19 cells, Compound II 80 nM
  IC50: 27.8 nM
[2]; HepDES19, read-out: IC50 for Compound I, DES19 cells, Compound II 160 nM
  IC50: 34.7 nM
[2]; HepDES19, read-out: IC50 for Compound I, DES19 cells, Compound II 320 nM
  IC50: 32.4 nM
[2]; HepDES19, read-out: IC50 for Compound I, DES19 cells, Compound II 640 nM
  IC50: 22.9 nM
[5]
  serum Compound I concentration: correlated with the effects of Compound I on HBV DNA and HBsAg
[3]; HePAD38, read-out: IC50 for Compound I, AD38 cells, Compound II 0 nM
  IC50: 32.1 nM
[3]; HePAD38, read-out: IC50 for Compound I, AD38 cells, Compound II 10 nM
  IC50: 31 nM
[3]; HePAD38, read-out: IC50 for Compound I, AD38 cells, Compound II 20 nM
  IC50: 26.5 nM
[3]; HePAD38, read-out: IC50 for Compound I, AD38 cells, Compound II 40 nM
  IC50: 29.9 nM
[3]; HePAD38, read-out: IC50 for Compound I, AD38 cells, Compound II 80 nM
  IC50: 29.5 nM
[3]; HePAD38, read-out: IC50 for Compound I, AD38 cells, Compound II 160 nM
  IC50: 34.5 nM
[3]; HePAD38, read-out: IC50 for Compound I, AD38 cells, Compound II 320 nM
  IC50: 38.2 nM
[3]; HePAD38, read-out: IC50 for Compound I, AD38 cells, Compound II 640 nM
  IC50: 21 nM
[4]
  intracellular HBV DNA compared to induced cells in the absence of the drug: reduced intracellular HBV DNA in a concentration-dependent manner
HBV
  liver HBsAg: did not affect
  serum HBV DNA: did not affect
  serum HBeAg: did not affect
  liver HBV DNA (copies per mg liver): decreased liver HBV DNA; also recorded: highly efficacious
HBV; high-dose Compound I (50 mg/kg/day)
  serum HBsAg: decreased serum HBsAg; also recorded: able to lower serum HBsAg levels

Source: patent US20180296588A1, “COMBINATION THERAPY FOR TREATING VIRAL INFECTIONS” (ContraVir Pharmaceuticals, Inc., priority 2017, published 2018)
